Laboratory results published in patent US11427549B2, “Pyrimidinyloxy benzo-fused compounds as herbicides” (FMC Corporation, priority 2017, dated 2022).

What was measured:
[1] = system: kochia (Kochia scoparia); assay: Test A postemergence, kochia; format: in vivo; conditions: Bassia scoparia, post-emergence, 240 h, 0 to 100 scale (0 no effect, 100 complete control), read-out: Plant response rating, Kochia; for pest or weed control at 31 g/ha: 31 g ai/ha; for pest or weed control at 125 g/ha: 125 g ai/ha
[2] = system: ryegrass, Italian (Italian ryegrass, Lolium multiflorum); assay: Test A preemergence, ryegrass, Italian; format: in vivo; conditions: Lolium multiflorum, pre-emergence, 240 h, 0 to 100 scale (0 no effect, 100 complete control), read-out: Plant response rating, Ryegrass, Italian; for pest or weed control at 31 g/ha: 31 g ai/ha; for pest or weed control at 125 g/ha: 125 g ai/ha
[3] = system: kochia (Kochia scoparia); assay: Test A preemergence, kochia; format: in vivo; conditions: Bassia scoparia, pre-emergence, 240 h, 0 to 100 scale (0 no effect, 100 complete control), read-out: Plant response rating, Kochia; for pest or weed control at 31 g/ha: 31 g ai/ha; for pest or weed control at 125 g/ha: 125 g ai/ha
[4] = system: corn (Zea mays); assay: Test A postemergence, corn; format: in vivo; conditions: Zea mays, post-emergence, 240 h, 0 to 100 scale (0 no effect, 100 complete control); for Corn plant response rating (crop injury, 0 = no effect, 100 = complete kill) at 31 g/ha: 31 g ai/ha; for Corn plant response rating (crop injury, 0 = no effect, 100 = complete kill) at 125 g/ha: 125 g ai/ha
[5] = system: blackgrass (Alopecurus myosuroides); assay: Test A postemergence, blackgrass; format: in vivo; conditions: Alopecurus myosuroides, post-emergence, 240 h, 0 to 100 scale (0 no effect, 100 complete control), read-out: Plant response rating, Blackgrass; for pest or weed control at 31 g/ha: 31 g ai/ha; for pest or weed control at 125 g/ha: 125 g ai/ha
[6] = system: pigweed (Amaranthus retroflexus); assay: Test A preemergence, pigweed; format: in vivo; conditions: Amaranthus retroflexus, pre-emergence, 240 h, 0 to 100 scale (0 no effect, 100 complete control), read-out: Plant response rating, Pigweed; for pest or weed control at 31 g/ha: 31 g ai/ha; for pest or weed control at 125 g/ha: 125 g ai/ha
[7] = system: ryegrass, Italian (Italian ryegrass, Lolium multiflorum); assay: Test A postemergence, ryegrass, Italian; format: in vivo; conditions: Lolium multiflorum, post-emergence, 240 h, 0 to 100 scale (0 no effect, 100 complete control), read-out: Plant response rating, Ryegrass, Italian; for pest or weed control at 31 g/ha: 31 g ai/ha; for pest or weed control at 125 g/ha: 125 g ai/ha
[8] = system: ragweed (common ragweed, Ambrosia elatior); assay: Test A postemergence, ragweed; format: in vivo; conditions: Ambrosia artemisiifolia, post-emergence, 240 h, 0 to 100 scale (0 no effect, 100 complete control), read-out: Plant response rating, Ragweed; for pest or weed control at 31 g/ha: 31 g ai/ha; for pest or weed control at 125 g/ha: 125 g ai/ha
[9] = system: wheat (Triticum aestivum); assay: Test A postemergence, wheat; format: in vivo; conditions: Triticum aestivum, post-emergence, 240 h, 0 to 100 scale (0 no effect, 100 complete control), read-out: Plant response rating, Wheat; for plant injury at 31 g/ha: 31 g ai/ha; for plant injury at 125 g/ha: 125 g ai/ha
[10] = system: pigweed (Amaranthus retroflexus); assay: Test A postemergence, pigweed; format: in vivo; conditions: Amaranthus retroflexus, post-emergence, 240 h, 0 to 100 scale (0 no effect, 100 complete control), read-out: Plant response rating, Pigweed; for pest or weed control at 31 g/ha: 31 g ai/ha; for pest or weed control at 125 g/ha: 125 g ai/ha
[11] = system: barnyardgrass (Echinochloa crus-galli); assay: Test A preemergence, barnyardgrass; format: in vivo; conditions: Echinochloa crus-galli, pre-emergence, 240 h, 0 to 100 scale (0 no effect, 100 complete control), read-out: Plant response rating, Barnyardgrass; for pest or weed control at 31 g/ha: 31 g ai/ha; for pest or weed control at 125 g/ha: 125 g ai/ha
[12] = system: barnyardgrass (Echinochloa crus-galli); assay: Test A postemergence, barnyardgrass; format: in vivo; conditions: Echinochloa crus-galli, post-emergence, 240 h, 0 to 100 scale (0 no effect, 100 complete control), read-out: Plant response rating, Barnyardgrass; for pest or weed control at 31 g/ha: 31 g ai/ha; for pest or weed control at 125 g/ha: 125 g ai/ha
[13] = system: galium (catchweed bedstraw, Galium aparine); assay: Test A postemergence, galium; format: in vivo; conditions: Galium, post-emergence, 240 h, 0 to 100 scale (0 no effect, 100 complete control), read-out: Plant response rating, Galium; for pest or weed control at 31 g/ha: 31 g ai/ha; for pest or weed control at 125 g/ha: 125 g ai/ha
[14] = system: ragweed (common ragweed, Ambrosia elatior); assay: Test A preemergence, ragweed; format: in vivo; conditions: Ambrosia artemisiifolia, pre-emergence, 240 h, 0 to 100 scale (0 no effect, 100 complete control), read-out: Plant response rating, Ragweed; for pest or weed control at 31 g/ha: 31 g ai/ha; for pest or weed control at 125 g/ha: 125 g ai/ha
[15] = system: foxtail, green (green foxtail, Setaria viridis); assay: Test A preemergence, foxtail, green; format: in vivo; conditions: Setaria, pre-emergence, 240 h, 0 to 100 scale (0 no effect, 100 complete control), read-out: Plant response rating, Foxtail, Green
Text: Seeds of plant species selected from barnyardgrass (Echinochloa crus-galli), kochia (Kochia scoparia), ragweed (common ragweed, Ambrosia elatior), ryegrass, Italian (Italian ryegrass, Lolium multiflorum), foxtail, giant (giant foxtail, Setaria faberii), foxtail, green (green foxtail, Setaria viridis) and pigweed (Amaranthus retroflexus) were planted into a blend of loam soil and sand and treated preemergence with a directed soil spray using test chemicals formulated in a non-phytotoxic solvent mixture which included a surfactant.
At the same time, plants selected from these weed species and also wheat (Triticum aestivum), corn (Zea mays), blackgrass (Alopecurus myosuroides), and galium (catchweed bedstraw, Galium aparine) were planted in pots containing the same blend of loam soil and sand and treated with postemergence applications of test chemicals formulated in the same manner. Plants ranged in height from 2 to 10 cm and were in the one- to two-leaf stage for the postemergence treatment. Treated plants and untreated controls were maintained in a greenhouse for approximately 10 days, after which time all treated plants were compared to untreated controls and visually evaluated for injury. […] A dash (-) response means no test result.

[16] = system: barnyardgrass (Echinochloa crus-galli); assay: Test B flooded paddy test, barnyardgrass; conditions: Echinochloa crus-galli, read-out: Plant response rating, Barnyardgrass (0 to 100 scale, 0 is no effect, 100 is complete control)
[17] = system: rice (Oryza sativa); assay: Test B flooded paddy test, rice; conditions: Oryza sativa, read-out: Plant response rating, Rice (0 to 100 scale, 0 is no effect, 100 is complete control)
[18] = system: ducksalad (Heteranthera limosa); assay: Test B flooded paddy test, ducksalad; conditions: Heteranthera limosa, read-out: Plant response rating, Ducksalad (0 to 100 scale, 0 is no effect, 100 is complete control)

SMILES	pest or weed control at 31 g/ha [1] [%]	pest or weed control at 125 g/ha [1] [%]	pest or weed control at 31 g/ha [2] [%]	pest or weed control at 125 g/ha [2] [%]	pest or weed control at 31 g/ha [3] [%]	pest or weed control at 125 g/ha [3] [%]	Corn plant response rating (crop injury, 0 = no effect, 100 = complete kill) at 31 g/ha [4] [%]	Corn plant response rating (crop injury, 0 = no effect, 100 = complete kill) at 125 g/ha [4] [%]	pest or weed control at 31 g/ha [5] [%]	pest or weed control at 125 g/ha [5] [%]	pest or weed control at 31 g/ha [6] [%]	pest or weed control at 125 g/ha [6] [%]	pest or weed control at 31 g/ha [7] [%]	pest or weed control at 125 g/ha [7] [%]	pest or weed control at 31 g/ha [8] [%]	pest or weed control at 125 g/ha [8] [%]	plant injury at 31 g/ha [9] [%]	plant injury at 125 g/ha [9] [%]	pest or weed control at 31 g/ha [10] [%]	pest or weed control at 125 g/ha [10] [%]	further results
O=C1CC(CCC(F)(F)F)c2c(Oc3ncc(Cl)cn3)cccc21 (stereo not shown) [Compound 11, 4-[(5-Chloro-2-pyrimidinyl)oxy]-2,3-dihydro-3-(3,3,3-trifluoropropyl)-1H-inden-1-one]	20	50	0	20	0	20	0	10	0	20	10	100	30	40	0	10	0	10	40	50	pest or weed control at 31 g/ha [11]: 0%; pest or weed control at 125 g/ha [11]: 50%; pest or weed control at 31 g/ha [12]: 20%; pest or weed control at 125 g/ha [12]: 30%; pest or weed control at 31 g/ha [13]: 10%; pest or weed control at 125 g/ha [13]: 40%; pest or weed control at 31 g/ha [14]: 0%; pest or weed control at 125 g/ha [14]: 0%; pest or weed control at 31 g/ha ([15]; 31 g ai/ha): 10%; pest or weed control at 125 g/ha ([15]; 125 g ai/ha): 70%
O=C1OCc2cccc(Oc3ncc(Cl)cn3)c2C1CCCCC(F)(F)F (stereo not shown) [Compound 34, 5-[(5-Chloro-2-pyrimidinyl)oxy]-1,4-dihydro-4-(5,5,5-trifluoropentyl)-3H-2-benzopyran-3-one]	20	10	0	0	0	0	10	20	0	10	0	0	0	0	0	0	0	10	10	40	pest or weed control at 250 g/ha [16]: 0%; pest or weed control at 31 g/ha [11]: 0%; pest or weed control at 125 g/ha [11]: 0%; pest or weed control at 31 g/ha [12]: 0%; pest or weed control at 125 g/ha [12]: 10%; pest or weed control at 31 g/ha [13]: 20%; pest or weed control at 125 g/ha [13]: 50%; pest or weed control at 31 g/ha [14]: 0%; pest or weed control at 125 g/ha [14]: 0%; plant injury at 250 g/ha [17]: 0%; pest or weed control at 250 g/ha [18]: 0%
